# From BindingDB's records for doi:10.1016/j.ejmech.2012.02.023 (Sun Yat-Sen University, 2012)
# Assay: Inhibition of TNF-alpha-induced NF-kappaB p65 nuclear translocation in human A549 cells after 2 hrs by fluorescence assay
row,IC50 [µM],Compound
1,24.4,O=C(/C=C/c1ccc(Cl)cc1)c1cccc(-c2cccc(F)c2)c1
2,11.2,O=C(/C=C/c1cccc(Br)c1)c1cccc(-c2cccc(F)c2)c1
3,35.3,COc1ccccc1/C=C/C(=O)c1cccc(-c2cccc(F)c2)c1
4,> 50,COc1ccc(/C=C/C(=O)c2cccc(-c3cccc(F)c3)c2)cc1
5,33.4,COc1ccc(/C=C/C(=O)c2cccc(-c3cccc(F)c3)c2)cc1OC
6,24.1,COc1cccc(/C=C/C(=O)c2cccc(-c3cccc(F)c3)c2)c1OC
7,12.9,COc1cc(/C=C/C(=O)c2cccc(-c3cccc(F)c3)c2)ccc1O
8,13.7,O=C(/C=C/c1ccccc1Br)c1cccc(-c2cccc(F)c2)c1
9,> 50,O=C(/C=C/c1ccc(Br)cc1)c1cccc(-c2cccc(F)c2)c1
10,> 50,O=C(/C=C/c1cccc(-c2ccc(F)cc2)c1)c1ccc(F)cc1
11,> 50,COc1ccc(/C=C/C(=O)c2ccc(N)c(-c3ccc(F)cc3)c2)cc1
12,> 50,COc1ccc(/C=C/C(=O)c2ccc(N)c(-c3ccc(F)cc3)c2)cc1OC
13,10.3,COc1ccc(OC)c(/C=C/C(=O)c2ccc(N)c(-c3ccc(F)cc3)c2)c1
14,6.83,COc1cc(/C=C/C(=O)c2ccc(N)c(-c3ccc(F)cc3)c2)ccc1O
15,11.6,COc1cc(/C=C/C(=O)c2ccc(N)c(-c3ccc(F)cc3)c2)cc(OC)c1OC
16,> 50,Nc1ccc(C(=O)/C=C/c2ccc(O)c(F)c2)cc1-c1ccc(F)cc1
17,> 50,COc1cc(/C=C/C(=O)c2ccc(N)c(-c3ccc(F)cc3)c2)cc(Br)c1O
18,21.3,COc1ccc(-c2cc(C(=O)/C=C/c3ccc(F)cc3)ccc2N)cc1OC
19,1.7,COc1ccc(/C=C/C(=O)c2ccc(N)c(-c3ccc(OC)c(OC)c3)c2)c(OC)c1
20,3.19,COc1ccc(OC)c(/C=C/C(=O)c2ccc(N)c(-c3ccc(OC)c(OC)c3)c2)c1
21,11.9,COc1ccc(-c2cc(C(=O)/C=C/c3cccc(OC)c3OC)ccc2N)cc1OC
22,> 50,COc1ccc(/C=C/C(=O)c2cccc(Br)c2)cc1
23,> 50,COc1ccc(/C=C/C(=O)c2cccc(Br)c2)cc1OC
24,> 50,COc1ccc(/C=C/C(=O)c2cccc(Br)c2)cc1O
25,> 50,COc1ccc(/C=C/C(=O)c2cccc(-c3ccc(F)cc3)c2)cc1
26,> 50,COc1ccc(/C=C/C(=O)c2cccc(-c3ccc(F)cc3)c2)cc1OC
27,9.59,COc1ccc(/C=C/C(=O)c2cccc(-c3cccc(F)c3)c2)cc1O
28,> 50,COc1ccc(/C=C/C(=O)c2cccc(-c3ccc(F)nc3)c2)cc1O
